According to patent publication US10654847B2, “Substituted 2-(4-heterocyclylbenzyl)isoindolin-1-one analogs as positive allosteric modulators of the muscarinic acetylcholine receptor M1” (Vanderbilt University, priority 2011, dated 2020):

Target: T1, mAChR M1 (UniProt P11229)
T1 sequence (P11229 1-460): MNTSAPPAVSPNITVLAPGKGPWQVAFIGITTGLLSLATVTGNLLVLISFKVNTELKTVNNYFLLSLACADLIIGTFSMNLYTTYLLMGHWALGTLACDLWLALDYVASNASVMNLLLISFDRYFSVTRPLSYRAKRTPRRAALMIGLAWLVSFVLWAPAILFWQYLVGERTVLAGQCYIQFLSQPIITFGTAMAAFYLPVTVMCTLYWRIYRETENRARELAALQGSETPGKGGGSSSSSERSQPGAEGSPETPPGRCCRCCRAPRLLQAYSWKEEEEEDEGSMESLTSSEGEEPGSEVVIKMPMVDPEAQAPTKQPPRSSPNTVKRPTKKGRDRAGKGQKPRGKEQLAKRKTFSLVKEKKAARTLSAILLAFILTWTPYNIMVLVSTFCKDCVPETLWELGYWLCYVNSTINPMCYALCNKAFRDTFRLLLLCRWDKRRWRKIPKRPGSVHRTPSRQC
Test: mAChR M1 cell-based functional assay (calcium mobilization, potentiation of EC20 acetylcholine response)
Conditions: for Emax (%): % ACh maximum at 30 μM, mAChR M1-expressing CHO-K1 cells, calcium flux; for pEC50 / EC50: positive allosteric modulation of EC20 ACh response, mAChR M1 CHO-K1 cells; for pEC50: <5 estimated where no plateau; for EC50: >10 μM estimated where no plateau, read-out: EC50

| SMILES | Emax (%) | pEC50 | EC50 [µM] |
| --- | --- | --- | --- |
| O=C1c2ccccc2CN1Cc1ccc(-n2cncn2)cc1F [Example B126] | <30 | <5.00 | > 10 |
| Cn1ccc2cc(-c3ccc(CN4Cc5ncccc5C4=O)c(F)c3)ccc21 [Example B127] | <30 | <5.00 | > 10 |
